Measurements reported in PubChem BioAssay (NCI).
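Five compound concentrations were applied to cells in 96-well plates for 48 hours; endpoints were derived by simple linear interpolation of the resulting dose-response curve. TGI marks complete inhibition of growth.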

Key:
Test in all cases: NCI anticancer screen, dose series, 48 h
COLO 205 colon = system: COLO 205 colon
UACC-62 melanoma = system: UACC-62 melanoma
SNB-75 CNS = system: SNB-75 CNS
MDA-N = system: MDA-N
OVCAR-5 ovarian = system: OVCAR-5 ovarian
M14 melanoma = system: M14 melanoma
NCI-H23 lung = system: NCI-H23 lung
SW-620 colon = system: SW-620 colon
HT29 colon = system: HT29 colon
DU-145 prostate = system: DU-145 prostate
OVCAR-4 ovarian = system: OVCAR-4 ovarian
HS 578T breast = system: HS 578T breast
MALME-3M melanoma = system: MALME-3M melanoma
SF-268 CNS = system: SF-268 CNS
OVCAR-8 ovarian = system: OVCAR-8 ovarian
EKVX NSCLC = system: EKVX NSCLC
ACHN renal = system: ACHN renal
CAKI-1 renal = system: CAKI-1 renal
MDA-MB-435 = system: MDA-MB-435
A498 renal = system: A498 renal
UO-31 renal = system: UO-31 renal
BT-549 breast = system: BT-549 breast
HCT-15 colon = system: HCT-15 colon
UACC-257 melanoma = system: UACC-257 melanoma
SR leukemia = system: SR leukemia
PC-3 prostate = system: PC-3 prostate
KM12 colon = system: KM12 colon
SN12C renal = system: SN12C renal
CCRF-CEM leukemia = system: CCRF-CEM leukemia
HOP-62 NSCLC = system: HOP-62 NSCLC
RXF 393 renal = system: RXF 393 renal
HCT-116 colon = system: HCT-116 colon
A549 NSCLC = system: A549 NSCLC
HL-60(TB) leukemia = system: HL-60(TB) leukemia
SF-539 CNS = system: SF-539 CNS
MCF7 breast = system: MCF7 breast
HCC-2998 colon = system: HCC-2998 colon
LOX IMVI melanoma = system: LOX IMVI melanoma
NCI/ADR-RES ovarian = system: NCI/ADR-RES ovarian
TK-10 renal = system: TK-10 renal
SNB-19 CNS = system: SNB-19 CNS
MDA-MB-231 breast = system: MDA-MB-231 breast
RPMI-8226 leukemia = system: RPMI-8226 leukemia
MOLT-4 leukemia = system: MOLT-4 leukemia
K-562 leukemia = system: K-562 leukemia
SK-MEL-2 melanoma = system: SK-MEL-2 melanoma
IGROV1 ovarian = system: IGROV1 ovarian
SK-MEL-28 melanoma = system: SK-MEL-28 melanoma
SF-295 CNS = system: SF-295 CNS
OVCAR-3 ovarian = system: OVCAR-3 ovarian
U251 CNS = system: U251 CNS
NCI-H522 lung = system: NCI-H522 lung
NCI-H460 lung = system: NCI-H460 lung
786-0 renal = system: 786-0 renal
SK-MEL-5 melanoma = system: SK-MEL-5 melanoma

Structure (SMILES): COc1cccc(C2C3=C(COC3=O)Oc3cc4c(cc32)OCO4)c1 (stereo not given)
- TGI (COLO 205 colon): 0.631 µM
- TGI (UACC-62 melanoma): > 100 µM
- TGI (SNB-75 CNS): > 100 µM
- TGI (MDA-N): < 0.0202 µM
- TGI (OVCAR-5 ovarian): > 90 µM
- TGI (M14 melanoma): > 100 µM
- TGI (NCI-H23 lung): 24.9 µM
- TGI (SW-620 colon): > 100 µM
- TGI (HT29 colon): 1.3 µM
- TGI (DU-145 prostate): 6.77 µM
- TGI (OVCAR-4 ovarian): > 100 µM
- TGI (HS 578T breast): > 100 µM
- TGI (MALME-3M melanoma): > 100 µM
- TGI (SF-268 CNS): > 62.6 µM
- TGI (OVCAR-8 ovarian): 20 µM
- TGI (EKVX NSCLC): > 58 µM
- TGI (ACHN renal): > 53.1 µM
- TGI (CAKI-1 renal): > 100 µM
- TGI (MDA-MB-435): 0.0817 µM
- TGI (A498 renal): 1.27 µM
- TGI (UO-31 renal): > 100 µM
- TGI (BT-549 breast): > 100 µM
- TGI (HCT-15 colon): > 42.4 µM
- TGI (UACC-257 melanoma): > 100 µM
- TGI (SR leukemia): > 100 µM
- TGI (PC-3 prostate): > 100 µM
- TGI (KM12 colon): 6.43 µM
- TGI (SN12C renal): > 100 µM
- TGI (CCRF-CEM leukemia): 7.74 µM
- TGI (HOP-62 NSCLC): > 14 µM
- TGI (RXF 393 renal): > 100 µM
- TGI (HCT-116 colon): > 31.6 µM
- TGI (A549 NSCLC): > 100 µM
- TGI (HL-60(TB) leukemia): 0.0524 µM
- TGI (SF-539 CNS): 0.0667 µM
- TGI (MCF7 breast): > 100 µM
- TGI (HCC-2998 colon): 1.88 µM
- TGI (LOX IMVI melanoma): > 22.1 µM
- TGI (NCI/ADR-RES ovarian): > 6.6 µM
- TGI (TK-10 renal): 93.6 µM
- TGI (SNB-19 CNS): > 100 µM
- TGI (MDA-MB-231 breast): > 43.3 µM
- TGI (RPMI-8226 leukemia): 3.03 µM
- TGI (MOLT-4 leukemia): 14.1 µM
- TGI (K-562 leukemia): 6.11 µM
- TGI (SK-MEL-2 melanoma): > 100 µM
- TGI (IGROV1 ovarian): > 64.9 µM
- TGI (SK-MEL-28 melanoma): > 100 µM
- TGI (SF-295 CNS): 0.228 µM
- TGI (OVCAR-3 ovarian): 0.43 µM
- TGI (U251 CNS): > 100 µM
- TGI (NCI-H522 lung): 0.0596 µM
- TGI (NCI-H460 lung): > 34 µM
- TGI (786-0 renal): > 66.4 µM
- TGI (SK-MEL-5 melanoma): > 43.1 µM
